Broadly, the Km is the substrate concentration at which the rate is half of its maximum.

Results on 3 compounds are retold here after publication PMC9687798, “Atypical Substrates of the Organic Cation Transporter 1” (Biomolecules, 2022).

Residue numbers refer to the chain shown, from its start. “Also recorded” adds a separate entry of the source.

The target in series [1] is T1, human OCT1*1 (wild-type) (Homo sapiens, UniProt O15245).
T1 sequence (O15245 1-554): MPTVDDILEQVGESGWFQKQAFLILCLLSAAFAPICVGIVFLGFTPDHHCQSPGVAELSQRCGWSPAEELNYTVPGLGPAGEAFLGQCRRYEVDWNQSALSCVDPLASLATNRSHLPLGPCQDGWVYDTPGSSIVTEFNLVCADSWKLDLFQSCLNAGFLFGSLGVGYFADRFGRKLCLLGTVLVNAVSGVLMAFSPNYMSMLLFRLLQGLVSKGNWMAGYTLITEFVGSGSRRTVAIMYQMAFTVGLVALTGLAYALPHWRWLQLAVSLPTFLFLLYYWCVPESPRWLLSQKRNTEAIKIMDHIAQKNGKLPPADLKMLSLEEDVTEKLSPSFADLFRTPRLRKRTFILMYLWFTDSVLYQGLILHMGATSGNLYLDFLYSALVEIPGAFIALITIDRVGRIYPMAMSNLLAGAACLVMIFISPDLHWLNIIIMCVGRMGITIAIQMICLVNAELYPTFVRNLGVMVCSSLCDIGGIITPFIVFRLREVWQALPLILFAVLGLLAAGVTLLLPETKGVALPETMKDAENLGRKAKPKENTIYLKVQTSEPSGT
As to the kind of experiment: Concentration-dependent uptake (transport kinetics) in HEK293 cells overexpressing OCT1 wild-type. The following applies: for Clint (±SEM): intrinsic clearance = ratio of Vmax and KM, OCT1 wild-type.

Series [2] addresses T1, human OCT1*1 (wild-type). Briefly: Cellular uptake ratio, OCT1-overexpressing HEK293 cells vs empty vector. In kind it is cell-based. As to conditions: based on ratio uptake data at 1 µM. As for the experimental part: (§1) The wild-type cell lines of OCT1 and OCT2, as well as the variant cell lines OCT1*2 and *3, were generated using the Flp-In system (Thermo Fisher Scientific, Darmstadt, Germany) as described in previous publications. The cell line overexpressing OCT3 was a kind gift from Dr. Koepsell and Dr. Gorbulev (University of Würzburg, Germany). Cells transfected with the empty pcDNA5/FRT vector were used for the transport experiments as a control cell line. All cells were cultured approximately up to passage 30.
(§2) Forty-eight hours before the transport experiments, 600,000 cells were plated on 12-well plates pre-coated with poly-D-lysine and incubated at 37 °C with 5% CO2. The prepared 12-well plate with cells was positioned on a heating plate pre-warmed to 37 °C. After removing the medium, the cells were washed with 37 °C HBSS+ (10 mM HEPES in Hank’s balanced salt solution, pH 7.4). Then, one pre-defined concentration of a substrate was added to each well. The incubation period was stopped by adding 2 mL of 4 °C HBSS+ and removing the cells from the heating plate. The cells were washed twice with 4 °C HBSS+. For cell lysis, the cells were incubated for 15 min with 500 µL of 80% acetonitrile (LGC Standards, Wesel, Germany), which contained a respective internal standard (Table 1).
(§3) For concentration-dependent transport, the cells were incubated with defined substrate concentrations (0.1, 1, 10, 30, 100, 300, 600, 1000 µM) for the respective pre-defined incubation times. […] The uptake by a transporter was normalised to the uptake by empty vector-transfected cells. […] The results of transport experiments were normalized to the total protein concentration per well. Total protein quantification was performed using a bicinchoninic acid assay with bovine serum albumin as standard.
(§4) The ratios of cellular uptake were calculated by dividing the total uptake of transporter-overexpressing cells by the total uptake into empty vector transfected cells. The concentration-dependent cellular net uptake was used for analysis of transport kinetics by subtracting for each substrate concentration the uptake of empty vector-transfected cells from the uptake of transporter-overexpressing cells. […] The intrinsic clearance Clint was expressed with the ratio of Vmax and KM.

The target of another series is T2, wild-type human OCT2 (Homo sapiens, UniProt O15244).
T2 sequence (O15244 1-555): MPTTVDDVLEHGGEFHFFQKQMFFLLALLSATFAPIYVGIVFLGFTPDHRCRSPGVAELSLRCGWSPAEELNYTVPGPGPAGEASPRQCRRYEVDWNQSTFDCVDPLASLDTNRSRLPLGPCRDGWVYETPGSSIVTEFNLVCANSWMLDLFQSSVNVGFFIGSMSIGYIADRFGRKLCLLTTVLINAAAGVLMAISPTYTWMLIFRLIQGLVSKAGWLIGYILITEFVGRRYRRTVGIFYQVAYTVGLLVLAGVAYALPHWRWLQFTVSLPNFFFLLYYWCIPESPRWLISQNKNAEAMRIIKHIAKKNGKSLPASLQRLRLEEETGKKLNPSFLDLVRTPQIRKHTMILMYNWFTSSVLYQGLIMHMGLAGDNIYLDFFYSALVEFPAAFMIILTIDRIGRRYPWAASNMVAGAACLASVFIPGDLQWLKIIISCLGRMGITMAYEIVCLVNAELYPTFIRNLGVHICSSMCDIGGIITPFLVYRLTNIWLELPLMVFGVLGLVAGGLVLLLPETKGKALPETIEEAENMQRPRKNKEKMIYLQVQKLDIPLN
Briefly: Cellular uptake ratio, OCT2-overexpressing HEK293 cells vs empty vector. Format: cell-based. The following applies: based on ratio uptake data at 1 µM. As for the experimental part: as §1, §2, §3, §4

In the next series the target is T3, OCT3 (Homo sapiens, UniProt O75751).
T3 construct: expressed in transfected cells; host or cells: HEK293, stably transfected; gift from Dr. Koepsell and Dr. Gorbulev (University of Würzburg)
T3 sequence (O75751 1-556): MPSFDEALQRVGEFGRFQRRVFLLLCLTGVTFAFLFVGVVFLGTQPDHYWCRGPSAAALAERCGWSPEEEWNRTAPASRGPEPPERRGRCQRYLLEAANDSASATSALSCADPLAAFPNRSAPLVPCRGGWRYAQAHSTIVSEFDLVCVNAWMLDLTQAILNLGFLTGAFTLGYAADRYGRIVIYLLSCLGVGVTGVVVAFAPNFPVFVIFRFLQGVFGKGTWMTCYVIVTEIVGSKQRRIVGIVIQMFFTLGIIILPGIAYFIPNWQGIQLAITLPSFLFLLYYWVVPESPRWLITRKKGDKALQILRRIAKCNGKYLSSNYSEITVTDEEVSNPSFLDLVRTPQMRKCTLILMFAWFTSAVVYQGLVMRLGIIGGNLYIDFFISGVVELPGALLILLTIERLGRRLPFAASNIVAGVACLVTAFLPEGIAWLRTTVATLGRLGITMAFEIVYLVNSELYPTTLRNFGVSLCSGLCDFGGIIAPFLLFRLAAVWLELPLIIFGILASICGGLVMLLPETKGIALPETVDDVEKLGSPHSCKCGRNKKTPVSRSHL
As to the kind of experiment: Cellular uptake ratio, OCT3-overexpressing HEK293 cells vs empty vector. In kind it is cell-based. As to conditions: based on ratio uptake data at 1 µM. As for the experimental part:
as §1, §2, §3, §4

Another series concerns the target T4, mutant human OCT1 D474N (Homo sapiens, UniProt O15245, D474N).
T4 construct: expressed in transfected cells
T4 sequence (O15245 1-554 D474N): T1 sequence (O15245 1-554) with D474N
Briefly: Cellular uptake by HEK293 cells overexpressing variant OCT1 D474N. As to conditions: p < 0.01. In kind it is cell-based.

A further series concerns the target T5, OCT1*3 (R61C) (Homo sapiens, UniProt O15245, R61C).
T5 construct: expressed in transfected cells
T5 sequence (O15245 1-554 R61C): T1 sequence (O15245 1-554) with R61C
As to the kind of experiment: Cellular uptake by HEK293 cells overexpressing OCT1*3. Format: cell-based. As to conditions: 1 µM substance. As for the experimental part: as §1, with “The transport experiments were performed using HEK293 cells that overexpress human OCT1*1 (wild-type), mutant human OCT1 D474N, variant human OCT1*2 (M420del) and OCT1*3 (R61C), wild-type human OCT2, and OCT3 after stable transfection. The wild-type” for “The wild-type”
as §2
(§5) For time-dependent transport, the cells were incubated with 1 µM of the substance for 15 to 240 s to determine the linear uptake range ≥ 15 s. For concentration-dependent transport, the cells were incubated with defined substrate concentrations (0.1, 1, 10, 30, 100, 300, 600, 1000 µM) for the respective pre-defined incubation times. […]; 100 µM) and pre-defined incubation times. The uptake by a transporter was normalised to the uptake by empty vector-transfected cells. […] The results of transport experiments were normalized to the total protein concentration per well. Total protein quantification was performed using a bicinchoninic acid assay with bovine serum albumin as standard.
(§6) The ratios of cellular uptake were calculated by dividing the total uptake of transporter-overexpressing cells by the total uptake into empty vector transfected cells. The concentration-dependent cellular net uptake was used for analysis of transport kinetics by subtracting for each substrate concentration the uptake of empty vector-transfected cells from the uptake of transporter-overexpressing cells. The transport kinetic parameters Vmax and KM were determined with non-linear regression by using the Michaelis–Menten equation for net uptake data and by using the Michaelis–Menten equation extended with a linear term for total uptake data (GraphPad Prism 5.01, GraphPad software, LA Jolla, CA, USA). The intrinsic clearance Clint was expressed with the ratio of Vmax and KM.

A short description of series [3]: Concentration-dependent uptake into empty vector-transfected HEK293 cells. Format: cell-based, human. The following applies: human, empty vector (pcDNA5/FRT)-transfected HEK293 cells, pH 7.4; empty vector-transfected HEK cells; read-out: intrinsic clearance. As for the experimental part:
as §1, with “The transport experiments were performed using HEK293 cells that overexpress human OCT1*1 (wild-type), mutant human OCT1 D474N, variant human OCT1*2 (M420del) and OCT1*3 (R61C), wild-type human OCT2, and OCT3 after stable transfection. The wild-type” for “The wild-type”
as §2, §5, §6

Series [4] concerns empty vector-transfected HEK cells. The series is described as above. Format: cell-based, human. The following applies: uptake into empty vector-transfected cells. As for the experimental part: as §1, with “The transport experiments were performed using HEK293 cells that overexpress human OCT1*1 (wild-type), mutant human OCT1 D474N, variant human OCT1*2 (M420del) and OCT1*3 (R61C), wild-type human OCT2, and OCT3 after stable transfection. The wild-type” for “The wild-type”
as §2, §5, §6

Take `C[N+](C)(C)[C@@H](Cc1c[nH]c2ccccc12)C(=O)[O-]` [Hypaphorine, hypaphorine]: the “OCT1 substrate classification from concentration-dependent uptake” value on human OCT1*1 (wild-type) [1] (good >5, poor 1–5, non-substrate <1 µL/mg protein/min or uptake not above empty vector) is “linear increase in total uptake of both cell lines”. Besides, the OCT1 transport category on human OCT1*1 (wild-type) [2] was 0 (no transport by OCT1, OCT2, and OCT3 occurred (i.e., no kinetic parameters or uptake ratio <2 without significance)). For the same compound, the OCT2 transport category at wild-type human OCT2 is 0 (no transport by OCT1, OCT2, and OCT3 occurred (i.e., no kinetic parameters or uptake ratio <2 without significance)). On OCT3, the OCT3 transport category is 0 (no transport by OCT1, OCT2, and OCT3 occurred (i.e., no kinetic parameters or uptake ratio <2 without significance)). For the same compound, the “enhancement of uptake by OCT1 D474N compared to wild-type” value on mutant human OCT1 D474N is on record as “two-fold enhancement; also recorded: significantly increased uptake by the variant OCT1 D474N”.
As for `Nc1ccn([C@@H]2CS[C@H](CO)O2)c(=O)n1` [Lamivudine, lamivudine], the “uptake by OCT1*3 in comparison to OCT1*1” value at OCT1*3 (R61C) is recorded as “reduction in uptake”. The OCT3 transport category at OCT3 was 0 (no transport by OCT1, OCT2, and OCT3 occurred (i.e., no kinetic parameters or uptake ratio <2 without significance)).
Consider `C[C@](N)(Cc1ccc(O)c(O)c1)C(=O)O` [Methyldopa, L-(–)-α-methyldopa], for which the “Clint (±SEM)” value at human OCT1*1 (wild-type) [1] stood at 5.94 ± 4.63 µL/mg Protein/min. In addition, the “Clint (±SEM)” value on human OCT1*1 (wild-type) [1] (listed as methyldopa) amounted to 5.94 µL/mg Protein/min. Besides, the microsomal CLint in series [3] turned out to be 15.1 µL/min/mg. In series [4], the Km was 32.2 µM and the Vmax came out at 488 pmol/mg protein/min. Further, the OCT1 transport category entry at human OCT1*1 (wild-type) [2] is “+/− (poor transport with a Clint < 5 or ratio between 1–2 with statistical significance (p < 0.05))”. The OCT2 transport category at wild-type human OCT2 was 0 (no transport by OCT1, OCT2, and OCT3 occurred (i.e., no kinetic parameters or uptake ratio <2 without significance)). Moreover, the OCT3 transport category at OCT3 is 0 (no transport by OCT1, OCT2, and OCT3 occurred (i.e., no kinetic parameters or uptake ratio <2 without significance)).
